What all share (test): Surface plasmon resonance binding of PDK1 to PIF / immobilised PIFtide
(In general: SPR reads the build-up and loss of mass on a sensor chip optically.)

The target of test [1] is T1, PDK1 (Homo sapiens, UniProt O15530, K115A).
T1 construct: Full length PDK1 (residues 1-556); made in house; host or cells: 293 cells
T1 sequence (O15530 1-556 K115A): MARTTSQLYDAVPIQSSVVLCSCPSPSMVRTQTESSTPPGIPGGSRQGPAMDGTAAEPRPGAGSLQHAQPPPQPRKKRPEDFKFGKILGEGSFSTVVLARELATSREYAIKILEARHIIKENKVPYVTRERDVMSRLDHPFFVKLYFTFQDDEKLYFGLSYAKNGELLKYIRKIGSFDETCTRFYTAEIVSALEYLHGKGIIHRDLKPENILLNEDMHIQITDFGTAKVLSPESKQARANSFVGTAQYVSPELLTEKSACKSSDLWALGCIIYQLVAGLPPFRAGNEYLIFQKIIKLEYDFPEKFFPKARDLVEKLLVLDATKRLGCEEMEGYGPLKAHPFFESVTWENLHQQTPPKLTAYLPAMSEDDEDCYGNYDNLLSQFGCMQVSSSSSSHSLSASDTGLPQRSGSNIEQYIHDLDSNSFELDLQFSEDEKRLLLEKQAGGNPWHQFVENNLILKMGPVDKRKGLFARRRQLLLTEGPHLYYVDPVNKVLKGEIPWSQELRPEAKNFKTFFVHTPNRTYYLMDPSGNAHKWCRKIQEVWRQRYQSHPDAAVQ
Particulars: immobilised biotinylated peptide; PDK1 K115A. An excerpt:
(§1) It is preferred that the interaction can be detected using a surface plasmon resonance method, as described in Example 1 or 2 and in Balendran et al (1999), supra and GB9906245.7, supra. The interacting polypeptide may be immobilised on the test surface, for example it can be coupled through amino groups to a SensorChip CM5™, according to the manufacturer's instructions, or a biotinylated polypeptide can be bound to an avidin coated SensorChip SA. The protein kinase (at concentrations between, for example 0 and […], for example 2 μM) is then injected over the surface and steady state binding determined in each case. From these measurements a Kd can be determined. […] Alternatively, a Kd can be determined for a polypeptide in competition with the immobilised polypeptide. The protein kinase (for example at a concentration of 0.5 μM) is mixed with free polypeptide (for example, at concentrations between 0 and 3 μM) and the mixture injected over the immobilised polypeptides. The steady state binding is determined in each case, from which the Kd of the interaction can be determined using the […] relationship. Alternatively, the interaction may be expressed in terms of an observed response or relative observed responses, measured in terms of mass of protein bound to the surface, as described in Example 2. For example, the polypeptide may be immobilised by amino coupling to a SensorChip CM5 and each protein kinase (for example different mutated protein kinases, as discussed below) for example at a concentration of 1.0 μM, injected over the immobilised polypeptide. Alternatively, the polypeptide may be immobilised on a SA SensorChip and each protein kinase, for example at a concentration of 40 nM injected over the immobilised polypeptide. The steady state response for each protein kinase is determined, for example expressed in Response Units (RU). 1000 RU corresponds to 1 ng/mm^2 of protein bound to the surface. A response of less than 10 RU may indicate that no interaction has taken place. A response of at least 10 RU may indicate that the immobilised and injected molecules interact with each other.
(§2) FIG. 9. Effect of mutation of conserved residues in the PIF-binding pocket of PDK1 on the ability to interact with PIF. 293 cells were transiently transfected with DNA constructs expressing GST-PIF and either wild type Myc-PDK1 or the indicated mutants of PDK1. 36 h post transfection the cells were lysed and GST-PIF purified by affinity chromatography on glutathione-Sepharose beads. 2 μg of each protein was electrophoresed on a 10% SDS/polyacrylamide gel and either stained with Coomassie blue (A and E) or immunoblotted using an anti Myc antibody to detect Myc-PDK1 (B and F). To establish that the wild type PDK1 and mutant proteins were expressed at a similar level, 10 μg of total cell lysate was electrophoresed on a 10% SDS/polyacrylamide gel and immunoblotted using anti-Myc antibodies (C and G). Duplicates of each condition are shown. Similar results were obtained in 3 to 5 separate experiments. (D) Surface Plasmon Resonance measurements were carried out in a BiaCore instrument as described in the Methods to measure the interaction of wild type and mutant GST-PDK1 preparations with the 24 residue synthetic peptide whose sequence encompasses the PDK1 binding site on PIF termed PIFtide [24: Example 2]. […]
(§3) Binding was analysed directly by surface plasmon resonance in an upgraded Bia-Lite™ system. […]

The test system of test [2] is PDK1. On the set-up: species or system human.
From the text: as §1, §2, §3

The target of test [3] is T2, PDK1 (Homo sapiens, UniProt O15530).
T2 construct: Full length PDK1 (residues 1-556); made in house; host or cells: 293 cells
T2 sequence (O15530 52-556): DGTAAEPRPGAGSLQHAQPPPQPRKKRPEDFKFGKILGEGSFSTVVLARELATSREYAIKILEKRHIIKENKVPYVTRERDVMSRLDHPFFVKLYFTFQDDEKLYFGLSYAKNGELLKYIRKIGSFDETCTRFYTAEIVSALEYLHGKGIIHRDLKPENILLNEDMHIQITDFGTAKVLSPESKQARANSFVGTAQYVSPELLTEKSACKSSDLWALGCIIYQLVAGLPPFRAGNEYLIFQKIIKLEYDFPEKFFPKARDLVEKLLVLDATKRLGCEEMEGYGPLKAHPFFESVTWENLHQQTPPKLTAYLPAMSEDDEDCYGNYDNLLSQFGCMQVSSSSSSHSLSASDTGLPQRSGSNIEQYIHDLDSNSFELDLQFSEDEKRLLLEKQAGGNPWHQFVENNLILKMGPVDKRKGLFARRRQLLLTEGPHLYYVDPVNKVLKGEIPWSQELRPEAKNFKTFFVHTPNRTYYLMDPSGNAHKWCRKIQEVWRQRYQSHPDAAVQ
The conditions noted are these: His-tagged PDK1.
From the text: as §1, §2, §3

Where a SMILES comes first, the peptide text is derived from it.

For the compound `CC[C@H](C)[C@H](NC(=O)[C@H](Cc1ccc(O)cc1)NC(=O)[C@H](CC(=O)O)NC(=O)[C@H](Cc1ccccc1)NC(=O)[C@H](CC(=O)O)NC(=O)[C@H](CCCNC(=N)N)NC(=O)[C@H](Cc1ccccc1)NC(=O)[C@H](CCSC)NC(=O)[C@H](CCC(=O)O)NC(=O)[C@H](CCC(N)=O)NC(=O)[C@H](CCC(=O)O)NC(=O)[C@H](CCC(=O)O)NC(=O)[C@H](CCC(=O)O)NC(=O)[C@H](CO)NC(=O)[C@H](CC(C)C)NC(=O)[C@@H](NC(=O)[C@H](CCCNC(=N)N)NC(=O)[C@@H]1CCCN1C(=O)[C@H](CCC(=O)O)NC(=O)[C@@H](N)CCCNC(=N)N)[C@@H](C)CC)C(=O)N[C@@H](C)C(=O)N[C@@H](CC(=O)O)C(=O)N[C@@H](Cc1c[nH]c2ccccc12)C(=O)N[C@@H](CS)C(=O)O` [PIFtide] (H-REPRILSEEEQEMFRDFDYIADWC-OH; N-terminus and C-terminus assumed), the “interaction with K115A mutant of PDK1” value in test [1] is “interacted weakly”. Also, in test [2] (PDK1 PIF pocket mutants vs wild type, unpublished data), the “decreased affinity of PDK1[K115A], PDK1[I119A], PDK1[Q150A] and PDK1[L155A] for PIFtide” value is around 10 fold. For the same compound, the “interaction with L155S, L155D and L155E mutants of PDK1” value in test [2] (immobilised biotinylated peptide, PDK1 mutants L155S, L155D, L155E) is reported as “no detectable affinity”. For the same compound, the “interaction with wild type GST-PDK1” value in test [2] (immobilised biotinylated peptide, wild type GST-PDK1) is on record as “high affinity interaction”.
For “GST-PIF: glutathione S-transferase fused to the last 77 residues of PRK2 (PIF)”, the “estimated equilibrium dissociation constant of the association between GST-PIF and His-tagged PDK1” value in test [3] was 600 nM.

The values are drawn from patent US20080009025A1, “PROTEIN KINASE REGULATION” (priority 1999, published 2008).
